# Source: the supplement of paper PMC4862054
# Test system: CAL-148
# Assay: normalised response (% of control), CellTiter-Glo; higher = more viable cells (100 = DMSO, 0 = benzethonium chloride kill control)
# Conditions: incubation time: 72 h
# Outline: (§1)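 Each value is the plate-normalised signal at one concentration of the series. Breast cancer cell lines (20 µl suspension) were incubated 72 h in 384-well plates with compound at 5 concentrations in 10-fold steps over a compound-specific 10,000-fold range. CellTox Green and then CellTiter-Glo were read, and each plate was scaled to 0.1 % DMSO (100) and a positive kill control (0).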
row,Compound,normalised response [%]
1,CCn1c(C(=O)N(C2CC2)C2CC2)cc2c3c(ncn3C)c(Nc3cc(C)n(C)n3)nc21 (1 nM),97.4
2,CCn1c(C(=O)N(C2CC2)C2CC2)cc2c3c(ncn3C)c(Nc3cc(C)n(C)n3)nc21 (10 nM),107
3,COc1ccc(S(=O)(=O)Nc2cccnc2Nc2ccc(O)cc2)cc1 [ABT-751] (10 nM),93.6
4,CN[C@@H](C)C(=O)N[C@H]1CN(C(=O)CC(C)C)CC[C@H]2CC[C@@H](C(=O)NC(c3ccccc3)c3ccccc3)N2C1=O [AT-406] (1 nM),98.3
5,CN[C@@H](C)C(=O)N[C@H]1CN(C(=O)CC(C)C)CC[C@H]2CC[C@@H](C(=O)NC(c3ccccc3)c3ccccc3)N2C1=O [AT-406] (10 nM),109
6,Cc1cc(Nc2nc(N[C@@H](C)c3ncc(F)cn3)ncc2Cl)[nH]n1 [AZD1480] (1 nM),89.7
7,CNC(=O)c1ccccc1Sc1ccc2c(/C=C/c3ccccn3)n[nH]c2c1 [Axitinib] (10 nM),101
8,CC(O)(CS(=O)(=O)c1ccc(F)cc1)C(=O)Nc1ccc(C#N)c(C(F)(F)F)c1 (stereo not drawn) [Bicalutamide] (10 nM),113
9,CCNC(=O)CCC/C=C\C[C@@H]1[C@@H](/C=C/[C@@H](O)CCc2ccccc2)[C@H](O)C[C@@H]1O [Bimatoprost] (5.5 nM),92.8
10,COc1cc(Nc2c(C#N)cnc3cc(OCCCN4CCN(C)CC4)c(OC)cc23)c(Cl)cc1Cl [Bosutinib] (10 nM),105
11,CCN(CC)CCCC(C)Nc1ccnc2cc(Cl)ccc12 (stereo not drawn) [Chloroquine] (10 nM),89.2
12,CC1(COc2ccc3c(c2)ncn3-c2ccc3cccc(N4CCC(N)CC4)c3n2)COC1 [Crenolanib] (10 nM),110
13,CC(C)(C)c1nc(-c2cccc(NS(=O)(=O)c3c(F)cccc3F)c2F)c(-c2ccnc(N)n2)s1 [Dabrafenib] (2.5 nM),112
14,Nc1ccn([C@@H]2O[C@H](CO)[C@@H](O)C2(F)F)c(=O)n1 [Gemcitabine] (1 nM),95.6
15,O=C(O)CNC(=O)c1c(O)c2ccccc2n(Cc2ccccc2)c1=O [IOX-2] (50 nM),98.7
16,CC(=O)[C@]1(O)Cc2c(O)c3c(c(O)c2[C@@H](O[C@H]2C[C@H](N)[C@H](O)[C@H](C)O2)C1)C(=O)c1ccccc1C3=O [Idarubicin] (1 nM),116
17,C/C(=C\c1csc(C)n1)[C@@H]1C[C@@H]2O[C@]2(C)CCC[C@H](C)[C@H](O)[C@@H](C)C(=O)C(C)(C)[C@@H](O)CC(=O)N1 [Ixabepilone] (1 nM),102
18,CN(C)C(=N)NC(=N)N [Metformin] (100 nM),93.7
19,CC[C@H](CO)Nc1nc(NCc2ccccc2)c2ncn(C(C)C)c2n1 [Seliciclib] (10 nM),110
20,O=[N+]([O-])c1ccc2c(c1)S(=O)(=O)C=C2 [Stattic] (50 nM),103
21,O=C(CCCCCCC(=O)Nc1ccccc1)NO [Vorinostat] (10 nM),98.6

# Test system: BT-549
# Assay: as above
# Conditions: incubation time: 72 h
# Outline: as §1
row,Compound,normalised response [%]
1,CCn1c(C(=O)N(C2CC2)C2CC2)cc2c3c(ncn3C)c(Nc3cc(C)n(C)n3)nc21 (1 nM),103
2,CCn1c(C(=O)N(C2CC2)C2CC2)cc2c3c(ncn3C)c(Nc3cc(C)n(C)n3)nc21 (10 nM),95.2
3,COc1ccc(S(=O)(=O)Nc2cccnc2Nc2ccc(O)cc2)cc1 [ABT-751] (10 nM),95.8
4,CN[C@@H](C)C(=O)N[C@H]1CN(C(=O)CC(C)C)CC[C@H]2CC[C@@H](C(=O)NC(c3ccccc3)c3ccccc3)N2C1=O [AT-406] (1 nM),106
5,CN[C@@H](C)C(=O)N[C@H]1CN(C(=O)CC(C)C)CC[C@H]2CC[C@@H](C(=O)NC(c3ccccc3)c3ccccc3)N2C1=O [AT-406] (10 nM),66.1
6,Cc1cc(Nc2nc(N[C@@H](C)c3ncc(F)cn3)ncc2Cl)[nH]n1 [AZD1480] (1 nM),92.5
7,CNC(=O)c1ccccc1Sc1ccc2c(/C=C/c3ccccn3)n[nH]c2c1 [Axitinib] (10 nM),107
8,CC(O)(CS(=O)(=O)c1ccc(F)cc1)C(=O)Nc1ccc(C#N)c(C(F)(F)F)c1 (stereo not drawn) [Bicalutamide] (10 nM),99.5
9,CCNC(=O)CCC/C=C\C[C@@H]1[C@@H](/C=C/[C@@H](O)CCc2ccccc2)[C@H](O)C[C@@H]1O [Bimatoprost] (5.5 nM),91.7
10,COc1cc(Nc2c(C#N)cnc3cc(OCCCN4CCN(C)CC4)c(OC)cc23)c(Cl)cc1Cl [Bosutinib] (10 nM),98.4
11,CCN(CC)CCCC(C)Nc1ccnc2cc(Cl)ccc12 (stereo not drawn) [Chloroquine] (10 nM),107
12,CC1(COc2ccc3c(c2)ncn3-c2ccc3cccc(N4CCC(N)CC4)c3n2)COC1 [Crenolanib] (10 nM),95.6
13,CC(C)(C)c1nc(-c2cccc(NS(=O)(=O)c3c(F)cccc3F)c2F)c(-c2ccnc(N)n2)s1 [Dabrafenib] (2.5 nM),99.1
14,Nc1ccn([C@@H]2O[C@H](CO)[C@@H](O)C2(F)F)c(=O)n1 [Gemcitabine] (1 nM),95
15,O=C(O)CNC(=O)c1c(O)c2ccccc2n(Cc2ccccc2)c1=O [IOX-2] (50 nM),93.9
16,CC(=O)[C@]1(O)Cc2c(O)c3c(c(O)c2[C@@H](O[C@H]2C[C@H](N)[C@H](O)[C@H](C)O2)C1)C(=O)c1ccccc1C3=O [Idarubicin] (1 nM),90.5
17,C/C(=C\c1csc(C)n1)[C@@H]1C[C@@H]2O[C@]2(C)CCC[C@H](C)[C@H](O)[C@@H](C)C(=O)C(C)(C)[C@@H](O)CC(=O)N1 [Ixabepilone] (1 nM),95.5
18,CN(C)C(=N)NC(=N)N [Metformin] (100 nM),99
19,CC[C@H](CO)Nc1nc(NCc2ccccc2)c2ncn(C(C)C)c2n1 [Seliciclib] (10 nM),99.9
20,O=[N+]([O-])c1ccc2c(c1)S(=O)(=O)C=C2 [Stattic] (50 nM),94.6
21,O=C(CCCCCCC(=O)Nc1ccccc1)NO [Vorinostat] (10 nM),106

# Test system: CAL-120
# Assay: as above
# Conditions: incubation time: 72 h
# Outline: as §1
row,Compound,normalised response [%]
1,CCn1c(C(=O)N(C2CC2)C2CC2)cc2c3c(ncn3C)c(Nc3cc(C)n(C)n3)nc21 (1 nM),94.4
2,CCn1c(C(=O)N(C2CC2)C2CC2)cc2c3c(ncn3C)c(Nc3cc(C)n(C)n3)nc21 (10 nM),97.3
3,COc1ccc(S(=O)(=O)Nc2cccnc2Nc2ccc(O)cc2)cc1 [ABT-751] (10 nM),101
4,CN[C@@H](C)C(=O)N[C@H]1CN(C(=O)CC(C)C)CC[C@H]2CC[C@@H](C(=O)NC(c3ccccc3)c3ccccc3)N2C1=O [AT-406] (1 nM),98.4
5,CN[C@@H](C)C(=O)N[C@H]1CN(C(=O)CC(C)C)CC[C@H]2CC[C@@H](C(=O)NC(c3ccccc3)c3ccccc3)N2C1=O [AT-406] (10 nM),96.7
6,Cc1cc(Nc2nc(N[C@@H](C)c3ncc(F)cn3)ncc2Cl)[nH]n1 [AZD1480] (1 nM),98
